“And” between values parts separate entries of the source, which are not always exact repeats. Equal entries are not always repeated.
How the values were obtained:
[1] = test system: Th0 cells; assay: Th0 polarization, IFN-γ by flow cytometry (Figure 1E); type: cell-based, mouse
Description: Naive CD4^+ T cells were isolated from the spleens of C57BL/6J or CD45.1^+ OT-II mice using the MojoSort Mouse CD4 Naive T Cell Isolation Kit (BioLegend, catalog 480040), following the manufacturer’s protocol. Purified cells were cultured in RPMI-1640 medium supplemented with 10% FBS, 1% penicillin-streptomycin, and 0.1% β-mercaptoethanol (Gibco, catalog 21985023).
T cell polarization was initiated under plate-bound anti-CD3 (2 μg/mL, clone 17A2, BioXCell, catalog BE0002) and soluble anti-CD28 (1 μg/mL, clone 37.51, BioXCell, catalog BE0015-1) stimulation, with the addition of cytokines and neutralizing antibodies specific to each subset. For Th9 cells, these included IL-4 (10 ng/mL, Peprotech, catalog 400-04), TGF-β (1 ng/mL, EPOTO Biotech, catalog HF-2021), anti–IL-12 (5 μg/mL, clone C17.8, BioXCell, catalog BE0051), and anti–IFN-γ (10 μg/mL, clone XMG1.2, BioXCell, catalog BE0055); for Th1 cells, these included IL-12 (10 ng/mL, GenScript, catalog Z03211-50) and anti–IL-4 (5 μg/mL, clone 11B11, BioXCell, catalog BE0045); for Th2 cells, these included IL-4 (50 ng/mL), anti–IFN-γ (20 μg /mL), anti–IL-12 (5 μg/mL), Th17 cells: IL-6 (20 ng/mL, EPOTO Biotech, catalog MF-1006), TGF-β (1 ng/mL), IL-1β (10 ng/mL, Peprotech, catalog AF-211-11B), anti–IFN-γ (10 μg/mL), anti–IL-12 (5 μg/mL), and anti–IL-4 (5 μg/mL); and for Tregs, these included TGF-β (3 ng/mL). […]

[2] = test system: human Th9 cells; assay: Intracellular ATP of human Th9 cells (Figure 8E); type: cell-based; settings: result in words
Description: For Th9 polarization, cultures were supplemented with IL-4 (10 ng/mL, PeproTech, catalog AF-200-04), TGF-β (1 ng/mL), and neutralizing anti–IFN-γ monoclonal antibody (10 μg/mL, clone B27, BioXcell, catalog BE0245). After 3 days of initial culture, cells were either collected for downstream assays or continued in extended culture with refreshed cytokines to maintain lineage commitment without antibodies. Th9 cells were collected at days 4, 5, and 6 for subsequent in vitro assays. For adoptive transfer studies, day 4–cultured Th9 cells were washed and prepared for intravenous injection.
Intracellular adenosine triphosphate (ATP) levels were measured using a chemiluminescent ATP assay kit (Beyotime, catalog S0026) according to the manufacturer’s protocol. Briefly, cells were lysed and incubated with the luciferase-based detection reagent, and the resulting luminescent signal was detected using an Infinite M200 multimode microplate reader (TECAN). ATP concentrations were calculated based on a standard curve and normalized to cell number or protein content where applicable.

How did the “IFN-γ expression under Th0 polarization” value ([1]; EpA 10 μM, individual replicates, n = 4) turn out when anteiso-C15 Leu7 surfactin [EpA] was run?
The value was 31 and 32.2 and 35 and 26.8.

And the “effect on Th0 polarization” value ([1]; result in words)?
The value was “did not affect”.

What about the “ATP production, human Th9” value [2] of the same substance?
The value was “increased”.
